Experimental data as given in PubChem BioAssay AID248 (DTP/NCI, 2004).
Several values for one entry are separate records, joined by “and”; a condition that tells them apart may be missing. Equal entries are not always repeated. Toxic doses and inconclusive results are not listed. Rule as the data show it: active = T/C of 150% or more; inactive = T/C below 125%. Square brackets hold non-standard residues; d marks the D form. Peptide text beside a SMILES is read from it. ξ: configuration not given here. ξY = NC(Cc1ccc(O)cc1)C(=O)O

System: L1210 leukemia ip in BDF1 mice, survival T/C
Assay: NCI In Vivo Anticancer Drug Screen. Data for tumor model L1210 Leukemia (intraperitoneal) in B6D2F1 (BDF1) mice
Conditions: endpoint: mean survival time, higher = longer survival
How it was run: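 Read-out is survival time, reported as the treated-group measurement over the vehicle-control measurement.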

[1] = dose: 100.0 mg/kg/injection, schedule: Q04DX003 (ip), vehicle: saline with Tween-80
[2] = dose: 200.0 mg/kg/injection, schedule: Q04DX003 (ip), vehicle: saline with Tween-80
[3] = dose: 400.0 mg/kg/injection, schedule: Q04DX003 (ip), vehicle: saline with Tween-80
[4] = dose: 12.5 mg/kg/injection, schedule: Q01DX009 (ip), vehicle: saline with Tween-80
[5] = dose: 25.0 mg/kg/injection, schedule: Q01DX009 (ip), vehicle: saline with Tween-80

Measured: T/C

O=C(Nc1ccc(Nc2ccccc2)cc1)Nc1cccc(C(F)(F)F)c1
inactive: dose: 100.0 mg/kg/injection, schedule: Q01DX001 (ip), vehicle: gum acacia 94 % of control and 97 % of control | dose: 100.0 mg/kg/injection, schedule: Q01DX009 (ip), vehicle: gum acacia 94 % of control and 98 % of control | dose: 100.0 mg/kg/injection, schedule: Q04DX002 (ip), vehicle: gum acacia 95 % of control | dose: 100.0 mg/kg/injection, schedule: Q04DX003 (ip), vehicle: gum acacia 100 % of control and 101 % of control | dose: 200.0 mg/kg/injection, schedule: Q01DX001 (ip), vehicle: gum acacia 97 % of control and 90 % of control | dose: 200.0 mg/kg/injection, schedule: Q01DX009 (ip), vehicle: gum acacia 98 % of control and 103 % of control | dose: 200.0 mg/kg/injection, schedule: Q04DX002 (ip), vehicle: gum acacia 93 % of control and 86 % of control | dose: 200.0 mg/kg/injection, schedule: Q04DX003 (ip), vehicle: gum acacia 94 % of control | dose: 400.0 mg/kg/injection, schedule: Q01DX001 (ip), vehicle: gum acacia 103 % of control and 87 % of control | dose: 400.0 mg/kg/injection, schedule: Q01DX009 (ip), vehicle: gum acacia 97 % of control and 91 % of control | dose: 400.0 mg/kg/injection, schedule: Q04DX002 (ip), vehicle: gum acacia 100 % of control | dose: 400.0 mg/kg/injection, schedule: Q04DX003 (ip), vehicle: gum acacia 95 % of control and 96 % of control

CCCCCCCCCCCCCCCC1=NN(c2ccc([N+](=O)[O-])cc2)C(=O)C1
inactive: dose: 100.0 mg/kg/injection, schedule: Q04DX003 (ip), vehicle: Klucel (hydroxypropylcellulose) (HPC) 94 % of control | dose: 200.0 mg/kg/injection, schedule: Q04DX003 (ip), vehicle: Klucel (hydroxypropylcellulose) (HPC) 89 % of control | dose: 400.0 mg/kg/injection, schedule: Q04DX003 (ip), vehicle: Klucel (hydroxypropylcellulose) (HPC) 100 % of control

COC(=O)N(C1CCCCC1)C1CCCCC1
inactive: dose: 100.0 mg/kg/injection, schedule: Q01DX009 (ip), vehicle: Klucel (hydroxypropylcellulose) (HPC) 97 % of control | dose: 200.0 mg/kg/injection, schedule: Q01DX009 (ip), vehicle: Klucel (hydroxypropylcellulose) (HPC) 96 % of control | dose: 400.0 mg/kg/injection, schedule: Q01DX009 (ip), vehicle: Klucel (hydroxypropylcellulose) (HPC) 100 % of control

COc1cc(/C=N/N2C(=O)CSC2=S)ccc1OCc1ccccc1
inactive: dose: 100.0 mg/kg/injection, schedule: Q01DX009 (ip), vehicle: saline with Tween-80 89 % of control | [1] 93 % of control | dose: 200.0 mg/kg/injection, schedule: Q01DX009 (ip), vehicle: saline with Tween-80 91 % of control | [2] 93 % of control | [3] 86 % of control

COC1OC2COc3ccccc3OC2C(NC(N)=S)C1S (stereo not given)
inactive: [1] 102 % of control | [2] 95 % of control | [3] 102 % of control

O=C(C=C(C(F)(F)F)C(F)(F)F)c1ccc(Cl)c2ccccc12
inactive: [4] 94 % of control | [5] 92 % of control | dose: 25.0 mg/kg/injection, schedule: Q04DX003 (ip), vehicle: saline with Tween-80 107 % of control | dose: 50.0 mg/kg/injection, schedule: Q04DX003 (ip), vehicle: saline with Tween-80 90 % of control

O=S(C/C=C/CS(=O)c1ccccc1)c1ccccc1 (stereo not given)
inactive: dose: 100.0 mg/kg/injection, schedule: Q04DX002 (ip), vehicle: Klucel (hydroxypropylcellulose) (HPC) 105 % of control | dose: 200.0 mg/kg/injection, schedule: Q04DX002 (ip), vehicle: Klucel (hydroxypropylcellulose) (HPC) 116 % of control | dose: 400.0 mg/kg/injection, schedule: Q04DX002 (ip), vehicle: Klucel (hydroxypropylcellulose) (HPC) 103 % of control

C[C@]12CCC(=O)C=C1CC[C@H]1[C@@H]3CC[C@](O)(C(=O)CO)[C@@]3(C)C[C@H](O)[C@@]12F
inactive: dose: 50.0 mg/kg/injection, schedule: Q01DX001 (sc), vehicle: steriod suspending solution 103 % of control | dose: 100.0 mg/kg/injection, schedule: Q01DX001 (sc), vehicle: steriod suspending solution 100 % of control | dose: 200.0 mg/kg/injection, schedule: Q01DX001 (sc), vehicle: steriod suspending solution 105 % of control | dose: 400.0 mg/kg/injection, schedule: Q01DX001 (sc), vehicle: steriod suspending solution 105 % of control

NCC(=O)NC(Cc1ccc(O)cc1)C(=O)O (stereo not given) (H-Gly-[ξY]-OH)
inactive: dose: 100.0 mg/kg/injection, schedule: Q01DX001 (ip), vehicle: saline 104 % of control | dose: 200.0 mg/kg/injection, schedule: Q01DX001 (ip), vehicle: saline 105 % of control and 102 % of control | dose: 400.0 mg/kg/injection, schedule: Q01DX001 (ip), vehicle: saline 98 % of control and 93 % of control

Cc1cc2c(C(C)C)c(O)c(O)c(C=O)c2c(O)c1-c1c(C)cc2c(C(C)C)c(O)c(O)c(C=O)c2c1O
inactive: dose: 0.25 mg/kg/injection, schedule: Q01DX009 (ip), vehicle: saline 105 % of control | dose: 0.5 mg/kg/injection, schedule: Q01DX009 (ip), vehicle: saline 110 % of control | dose: 1.0 mg/kg/injection, schedule: Q01DX009 (ip), vehicle: saline 106 % of control | dose: 2.0 mg/kg/injection, schedule: Q01DX009 (ip), vehicle: saline 106 % of control | dose: 4.0 mg/kg/injection, schedule: Q01DX009 (ip), vehicle: saline 108 % of control | dose: 8.0 mg/kg/injection, schedule: Q01DX009 (ip), vehicle: saline 101 % of control

C=CCN(CC=C)C(=O)CCN1CC1
inactive: dose: 1.25 mg/kg/injection, schedule: Q01DX Z (ip), vehicle: saline 96 % of control | dose: 2.5 mg/kg/injection, schedule: Q01DX Z (ip), vehicle: saline 96 % of control | dose: 5.0 mg/kg/injection, schedule: Q01DX Z (ip), vehicle: saline 100 % of control | dose: 10.0 mg/kg/injection, schedule: Q01DX Z (ip), vehicle: saline 98 % of control and 111 % of control | dose: 10.0 mg/kg/injection, schedule: Q01DX Z (oral), vehicle: saline 108 % of control | dose: 20.0 mg/kg/injection, schedule: Q01DX001 (ip), vehicle: saline 103 % of control | dose: 20.0 mg/kg/injection, schedule: Q01DX Z (ip), vehicle: saline 96 % of control | dose: 20.0 mg/kg/injection, schedule: Q01DX Z (oral), vehicle: saline 117 % of control | dose: 40.0 mg/kg/injection, schedule: Q01DX001 (ip), vehicle: saline 115 % of control | dose: 40.0 mg/kg/injection, schedule: Q01DX Z (oral), vehicle: saline 86 % of control

C1N2CN3CN1CN(C2)C3 (tested in a mixture with another compound)
inactive: [1] 107 % of control | [2] 103 % of control | [3] 102 % of control

CCC(=O)NC1=CC(=O)c2ccccc2C1=O
inactive: dose: 75.0 mg/kg/injection, schedule: Q01DX001 (ip), vehicle: carboxymethylcellulose (CMC) 98 % of control | dose: 150.0 mg/kg/injection, schedule: Q01DX001 (ip), vehicle: carboxymethylcellulose (CMC) 97 % of control | dose: 300.0 mg/kg/injection, schedule: Q01DX001 (ip), vehicle: carboxymethylcellulose (CMC) 95 % of control

CN(C)CCNS(C)(=O)=O
inactive: dose: 100.0 mg/kg/injection, schedule: Q01DX009 (ip), vehicle: saline 105 % of control | dose: 100.0 mg/kg/injection, schedule: Q04DX003 (ip), vehicle: saline 98 % of control | dose: 200.0 mg/kg/injection, schedule: Q01DX009 (ip), vehicle: saline 105 % of control | dose: 200.0 mg/kg/injection, schedule: Q04DX003 (ip), vehicle: saline 100 % of control | dose: 400.0 mg/kg/injection, schedule: Q01DX009 (ip), vehicle: saline 109 % of control | dose: 400.0 mg/kg/injection, schedule: Q04DX003 (ip), vehicle: saline 100 % of control

NOCc1csc(NC(=O)Nc2ccccc2)n1
inactive: dose: 18.8 mg/kg/injection, schedule: Q01DX009 (ip), vehicle: saline with Tween-80 95 % of control | dose: 37.5 mg/kg/injection, schedule: Q01DX009 (ip), vehicle: saline with Tween-80 103 % of control | dose: 75.0 mg/kg/injection, schedule: Q01DX009 (ip), vehicle: saline with Tween-80 105 % of control

O=C(O)c1ccc(N=Cc2ccccc2O)cc1.[Co]
inactive: dose: 100.0 mg/kg/injection, schedule: Q01DX001 (ip), vehicle: other 96 % of control | dose: 200.0 mg/kg/injection, schedule: Q01DX001 (ip), vehicle: other 112 % of control

NNP(=O)(N1CCCCC1)N1CCCCC1
inactive: dose: 100.0 mg/kg/injection, schedule: Q04DX002 (ip), vehicle: saline with Tween-80 90 % of control | dose: 200.0 mg/kg/injection, schedule: Q04DX002 (ip), vehicle: saline with Tween-80 97 % of control

Nc1nccc2c1ncn2C1OC(CO)C(O)C1O (stereo not given)
inactive: dose: 100.0 mg/kg/injection, schedule: Q01DX005 (ip), vehicle: saline 108 % of control | dose: 200.0 mg/kg/injection, schedule: Q01DX005 (ip), vehicle: saline 109 % of control

CC1COC(Nc2cccc3c2CCCC3)=N1 (stereo not given)
inactive: [4] 103 % of control | [5] 92 % of control | dose: 50.0 mg/kg/injection, schedule: Q01DX009 (ip), vehicle: saline with Tween-80 90 % of control
